Laboratory results reported in patent publication US11299494B2, “Substituted imidazo[1,2-b]pyridazines as interleukin-23 and interferon-α modulators” (BRISTOL-MYERS SQUIBB COMPANY, priority 2016, dated 2022).

Experiments:
[1] = target: T1, human Tyk2 (amino acids 575-869, His-tagged) (Homo sapiens, UniProt P29597); assay: Probe displacement assay (scintillation proximity, radiolabeled probe); format: binding; settings: 2.5 nM Tyk2 (575-869), 40 nM tritiated probe, 30 minutes at room temperature
T1 construct: made in house
T1 sequence (P29597 with tags, fused parts or gaps): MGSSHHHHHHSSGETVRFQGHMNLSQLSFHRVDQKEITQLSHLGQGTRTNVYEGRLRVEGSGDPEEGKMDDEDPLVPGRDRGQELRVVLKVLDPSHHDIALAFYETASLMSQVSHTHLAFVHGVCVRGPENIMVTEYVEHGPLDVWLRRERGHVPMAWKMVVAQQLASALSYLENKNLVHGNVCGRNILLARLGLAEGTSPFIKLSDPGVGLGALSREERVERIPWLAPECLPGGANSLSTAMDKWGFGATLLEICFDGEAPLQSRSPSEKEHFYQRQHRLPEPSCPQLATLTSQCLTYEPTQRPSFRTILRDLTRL
Experimental: The probe displacement assay is conducted as follows: In a […], test compounds along with recombinantly expressed His-tagged protein corresponding to amino acids 575-869 of human Tyk2 (sequence shown below) at 2.5 nM, 40 nM ((R)—N-(1-(3-(8-methyl-5-(methylamino)-8H-imidazo[4,5-d]thiazolo[5,4-b]pyridin-2-yl)phenyl)ethyl)-2-([^3H]methylsulfonyl)benzamide) (preparation described below) and 80 μg/mL Copper His-Tag scintillation proximity assay beads (Perkin Elmer, Catalog #RPNQ0095) in 50 mM HEPES, pH 7.5, containing 100 μg/mL bovine serum albumin and 5% DMSO were incubated for 30 minutes at room temperature. The amount of radiolabeled probe (preparation described below) bound to Tyk2 was then quantified by scintillation counting, and the inhibition by the test compound calculated by comparison to wells either with no inhibitor (0% inhibition) or without Tyk2 (100% inhibition). The IC50 value is defined as the concentration of test compound required to inhibit radiolabeled probe binding by 50%.
Protein Sequence of recombinant Hig-tagged Tyk2 (575-869):
The preparation of radiolabeled probe, (R)—N-(1-(3-(8-methyl-5-(methylamino)-8H-imidazo[4,5-d]thiazolo[5,4-b]pyridin-2-yl)phenyl)ethyl)-2-([^3H]methylsulfonyl)benzamide, was performed as described below:
2-([^3H]methylsulfonyl)benzoic acid: 2-Mercaptobenzoic acid (2.3 mg, 0.015 mmol) and cesium carbonate (2 mg, 0.006 mmol) were added to a 5 mL round-bottomed flask. The flask was attached to a ported glass vacuum line and anhydrous DMF (0.5 mL) was introduced with magnetic stirring. An ampoule of tritiated methyl iodide (200 mCi, Perkin-Elmer lot 3643419) was added to the reaction flask and stirring was maintained at rt for 3 h. In-process HPLC analysis with radiometric detection indicated 80% conversion to the desired product by comparison with authentic standard. Without purification, the crude product was reacted with mCPBA (10 mg, 0.058 mmol) pre-dissolved in CH2Cl2 (1 mL) at room temperature with stirring. The reaction was stirred for 7 h and additional mCPBA (10 mg, 0.058 mmol) was added. The reaction was stirred for approximately 24 h and HPLC analysis indicated 35-40% conversion to the desired […] product. The crude product was purified by semi-preparative HPLC (Luna Sum C18 (10×250 cm); A: MeOH/H2O=15/85 (0.1% TFA); B: MeOH; 270 nm; 0-8 min 0% B 1 ml/min; 8-10 min 0% B 1-3 ml/min; 10-55 min 0% B 3 ml/min; 55-65 min 0-10% B 3 ml/min; 65-75 min 10-50% B 3 ml/min; 75-80 min 50-100% B 3 ml/min) to give 81 mCi (40% radiochemical yield) of 2-([^3H]methylsulfonyl)benzoic acid product identified by its HPLC co-elution with an authentic standard. The radiochemical purity was measured by HPLC to be 99% (Luna 5u C18 (4.6×150 cm); A: H2O (0.1% TFA); B: MeOH; 1.2 ml/min; 270 nm; 0-10 min 20% B; 10-15 min 20-100% B; 15-25 min 100% B. The product was dissolved in anhydrous acetonitrile to give a final solution activity of 5.8 mCi/mL. (R)—N-(1-(3-(8-methyl-5-(methylamino)-8H-imidazo[4,5-d]thiazolo[5,4-b]pyridin-2-yl)phenyl)ethyl)-2-([^3H]methylsulfonyl)benzamide: A solution of 2-([^3H]methylsulfonyl)benzoic acid (23.2 mCi) in acetonitrile was added to a 5 mL round-bottomed flask which was then attached to a vacuum line and carefully evaporated to dryness. (R)-2-(3-(1-aminoethyl)phenyl)-N,8-dimethyl-8H-imidazo[4,5-d]thiazolo[5,4-b]pyridin-5-amine (prepared as described in WO 2004/106293 and Dyckman et al., Bioorganic and Medicinal Chemistry Letters, 383-386 (2011)) (1.1 mg, 0.0033 mmol) and PyBOP (2 mg, 0.0053 mmol) dissolved in anhydrous DMF (1.5 mL) were added to the flask followed by N,N-diisopropylethylamine (0.010 mL). The resulting clear solution was stirred at room temperature for 18 h. […]

[2] = test system: IFNa Kit225 Reporter (Kit225 T cells with STAT-dependent luciferase reporter); assay: Kit225 T cell assay, IFNα stimulated STAT-dependent luciferase reporter; format: cell-based; settings: 200 U/mL human recombinant IFNα, 5-6 hours
Experimental: (§1) Kit225 T cells with a stably-integrated STAT-dependent luciferase reporter were plated in RPMI (GIBCO) containing 10% heat-inactivated FBS (GIBCO) and 100 U/mL PenStrep (GIBCO). The cells were then stimulated with either 20 ng/mL human recombinant IL-23 or 200 U/mL human recombinant IFNα (PBL InterferonSource) for 5-6 hours. Luciferase expression was measured using the STEADY-GLO® Luciferase Assay System (PROMEGA®) according to the manufacturer's instructions. Inhibition data were calculated by comparison to no inhibitor control wells for 0% inhibition and non-stimulated control wells for 100% inhibition. Dose response curves were generated to determine the concentration required to inhibit 50% of cellular response (IC50) as derived by non-linear regression analysis.

[3] = test system: IL-23 Kit225 Reporter (Kit225 T cells with STAT-dependent luciferase reporter); assay: Kit225 T cell assay, IL-23 stimulated STAT-dependent luciferase reporter; format: cell-based; settings: 20 ng/mL human recombinant IL-23, 5-6 hours
Experimental: as §1

Compound | EC50 [1] | IC50 [2] | IC50 [3]
CNc1cc(-n2cc(C(=O)NCC(C)(C)O)c3ccccc32)nn2c(C(=O)NC3CC3)cnc12 [Example 1, N-cyclopropyl-6-(3-((2-hydroxy-2-methylpropyl)carbamoyl)-1H-indol-1-yl)-8-(methylamino)imidazo[1,2-b]pyridazine-3-carboxamide] | 22 nM | 1320 nM | 2100 nM
CCNC(=O)c1cn(-c2cc(NC)c3ncc(C(=O)NC4CC4)n3n2)c2ccccc12 [Example 2] | 5 nM | 1120 nM | 813 nM
CNc1cc(-n2cc(C(=O)N3CCC(O)CC3)c3ccccc32)nn2c(C(=O)NC3CC3)cnc12 [Example 3] | 19 nM | 4790 nM | 12500 nM
CNc1cc(-n2cc(C(=O)NCCC(N)=O)c3ccccc32)nn2c(C(=O)NC3CC3)cnc12 [Example 6] | 31 nM | 9550 nM | 12500 nM
CNc1cc(-n2cc(C(=O)NCC(C)C)c3ccccc32)nn2c(C(=O)NC3CC3)cnc12 [Example 7] | 35 nM | 924 nM | 1640 nM
CNc1cc(-n2cc(C(=O)NCCOC)c3ccccc32)nn2c(C(=O)NC3CC3)cnc12 [Example 8] | 37 nM | 537 nM | 574 nM
CNc1cc(-n2cc(C(=O)NC(C)C)c3ccccc32)nn2c(C(=O)NC3CC3)cnc12 [Example 9] | 40 nM | 1460 nM | 3090 nM
CNc1cc(-n2cc(C(=O)NCC(C)(C)O)c3ccccc32)nn2c(C(=O)NC3CCC3)cnc12 [Example 10] | 6 nM | 882 nM | 1100 nM
CNc1cc(-n2cc(C(=O)NC3CCOCC3)c3ccccc32)nn2c(C(=O)NC3CCC3)cnc12 [Example 11] | 10 nM | 689 nM | 1370 nM
CNc1cc(-n2cc(C(=O)N3CCOCC3)c3ccccc32)nn2c(C(=O)NC3CCC3)cnc12 [Example 12] | 18 nM | 1290 nM | 1740 nM
CNc1cc(-n2cc(C(=O)NCC(C)(C)O)c3cccnc32)nn2c(C(=O)NC3CC3)cnc12 [Example 13] | 25 nM | 1250 nM | 294 nM
CNc1cc(-n2cnc3ccccc32)nn2c(C(=O)NC3CC3)cnc12 [Example 14] | 29 nM | 1750 nM | 3640 nM
CNc1cc(-n2nc(C(=O)N3CCOCC3)c3ccccc32)nn2c(C(=O)NC3CC3)cnc12 [Example 18] | 40 nM | 511 nM | 700 nM

Further compounds by falling EC50 [1], results first:

EC50 [1] | IC50 [2] | IC50 [3] | Compound
123 nM | 1140 nM | 947 nM | CNc1cc(-n2ccc3ncccc32)nn2c(C(=O)NC3CC3)cnc12 [Example 16]
75 nM | 475 nM | 926 nM | CNc1cc(-n2nc(C(=O)NCC(C)(C)O)c3ccccc32)nn2c(C(=O)NC3CC3)cnc12 [Example 20]
61 nM | 474 nM | 511 nM | CNc1cc(-n2nc(C(=O)N(C)C)c3ccccc32)nn2c(C(=O)NC3CC3)cnc12 [Example 19]
48 nM | 12500 nM | 12500 nM | CNc1cc(-n2cc(C(=O)O)c3ccccc32)nn2c(C(=O)NC3CCC3)cnc12 [Example 22]
46 nM | 2320 nM | 649 nM | CNc1cc(-n2ccc3c(OC)cccc32)nn2c(C(=O)NC3CC3)cnc12 [Example 15]
25 nM | 4210 nM | 1960 nM | CNc1cc(-n2cc(C(=O)Nc3ccccc3)c3ccccc32)nn2c(C(=O)NC3CC3)cnc12 [Example 5]
22 nM | 1230 nM | 1890 nM | CNc1cc(-n2cc(C(=O)Nc3cccnc3)c3ccccc32)nn2c(C(=O)NC3CC3)cnc12 [Example 4]
16 nM | 270 nM | 355 nM | CNC(=O)c1nn(-c2cc(NC)c3ncc(C(=O)NC4CC4)n3n2)c2ccccc12 [Example 17, N-cyclopropyl-8-(methylamino)-6-(3-(methylcarbamoyl)-1H-indazol-1-yl)imidazo[1,2-b]pyridazine-3-carboxamide]
13 nM | 433 nM | 661 nM | CNc1cc(-n2ccc3ccccc32)nn2c(C(=O)NC3CC3)cnc12 [Example 21]
